In one data set the test system is human Hsp90. Particulars: cited from earlier work.
The conditions of data set [1]: in vivo; cited from earlier work.
In data set [2] the test system is UVR-induced hyperplasia. The experiment in a line: Effect of topically applied Hsp90 inhibitors on UVR-induced hyperplasia (Table 3). On Effect on Hyperplasia, Mice 1 or Slide 1, 24 Hr. post UVR: key: +++ (positive effect); −−− (negative effect); −− (less negative). On Effect on Hyperplasia, Mice 2 or Slide 2, 24 Hr. post UVR: key: +++ (positive effect); −−− (negative effect); −− (less negative). On Effect on Hyperplasia, Mice 2 or Slide 2, 48 Hr. post UVR: key: +++ (positive effect); −−− (negative effect); −− (less negative). Particulars: for Effect on Hyperplasia, Mice 1 or Slide 1, 24 Hr. post UVR / Effect on Hyperplasia, Mice 1 or Slide 1, 48 Hr. post UVR / Effect on Hyperplasia, Mice 2 or Slide 2, 24 Hr. post UVR / Effect on Hyperplasia, Mice 2 or Slide 2, 48 Hr. post UVR: SKH1 mice, topical; for Effect on Hyperplasia, Mice 1 or Slide 1, 24 Hr. post UVR: mouse 1, 24 Hr. post UVR; for Effect on Hyperplasia, Mice 1 or Slide 1, 48 Hr. post UVR: mouse 1, 48 Hr. post UVR; for Effect on Hyperplasia, Mice 2 or Slide 2, 24 Hr. post UVR: mouse 2, 24 Hr. post UVR; for Effect on Hyperplasia, Mice 2 or Slide 2, 48 Hr. post UVR: mouse 2, 48 Hr. post UVR. Also noted: Effect on Hyperplasia, Mice 2 or Slide 2, 24 Hr. post UVR / Effect on Hyperplasia, Mice 2 or Slide 2, 48 Hr. post UVR / Effect on Hyperplasia, Mice 1 or Slide 1, 24 Hr. post UVR / Effect on Hyperplasia, Mice 1 or Slide 1, 48 Hr. post UVR: key: +++ (positive effect); −−− (negative effect); −− (less negative). Type of data set: in vivo, SKH1 mice.

For data set [3] the following is noted: clinical trials; cited from earlier work.
The subject of data set [4] is MMP-2, MMP-9, Collagen IV, Hsp70. The experiment in a line: Skin expression of MMPs, collagen IV, Hsp70 and PCNA after UVR (Western blot). Type of data set: in vivo. Particulars: SKH1 mice. A general note: Immunoblotting shows a protein as a band on a membrane.
Description: Groups of SKH1 mice were exposed to UVR (2 kJ/m2) three times (Monday, Wednesday, Friday, and Monday) weekly for 6 and 12 weeks. […] Mice were sacrificed at 24 hours after the last UVR treatment. […] To determine morphological and biochemical alteration in skin, the two layers of skin (epidermis and dermis) were isolated separately for analysis of the indicated protein by the western blot analysis.
Mouse skin was excised and scraped to remove subcutaneous fat. The epidermis was scraped off on an ice-cold glass plate, homogenized in lysis buffer [50 mmol/L HEPES, 150 mmol/L NaCl, 10% glycerol, 1% Triton X-100, 1.5 mmol/L MgCl2, 10 μg/m aprotinin, 10 μg/m leupeptin, 1 mmol/L phenylmethylsulfonyl fluoride (PMSF), 200 μmol/L Na3VO4, 200 μmol/L NaF, and 1 mmol/L EGTA (final pH 7.5)]. The homogenate was centrifuged at 14,000 g for 30 min at 4° C. Epidermal cell lysate proteins were fractionated on 10% Criterion™ pre-cast SDS-polyacrylamide gels (Bio-Rad Laboratories, Hercules, Calif.). The protein was transferred to 0.45 μm Hybond-P polyvinylidene difluoride (PVDF) transfer membrane (Amersham Life Sciences, Piscataway, N.J.). The membrane was then incubated with the indicated antibody followed by a horseradish peroxidase secondary antibody (Thermo Scientific), and the detection signal was developed with Amersham's enhanced chemiluminescence reagent and using FOTO/Analyst Luminary Work Station (Fotodyne Inc.). The Western blots were quantitated by densitometric analysis using Totallab® Nonlinear Dynamic Image analysis software (Nonlinear USA, Inc., Durham, N.C.).
Data set [5] deals with UVR-induced SCC. Briefly: UVR-induced development of SCC in SKH-1 hairless mice (tumor induction experiment). It is filed as in vivo. The method, then:
(§1) The SKH-1 hairless mice (6-7 week old) were exposed to UVR. The UVR source was Kodacel-filtered FS-40 sun lamps (approximately 60% UVB and 40% UVA). Mice were exposed to UVR (1.8 kJ/m2) three times weekly (Monday, Wednesday and Friday). The mice in the vehicle group (n=18) received topical treatment of 200 μl vehicle (DMSO:acetone: 1:40 v/v) before and after each UVR exposures. […] Carcinomas were recorded grossly as downward-invading lesions, which were confirmed histologically. […] At the end of the experiment, mice were sacrificed. […] A part of the uninvolved dorsal skin was fixed for in 10% neutral-buffered formalin for histological examination. […] (D): A part of the uninvolved skin was also used to prepare total epidermal lysate to determine expression level of PKCε, Hsp90β, and Hsp70.
(§2) The PKCε-overexpressing transgenic (TG) and wildtype FVB/N mice (6-7 week old) were exposed to UVR. Mice were exposed to UVR (1.8 kJ/m2) three times weekly (Monday, Wednesday and Friday). The mice in the vehicle group received topical treatment of 200 μl vehicle (DMSO:acetone: 1:40 v/v) before and after UVR each exposure. […] Carcinomas were recorded grossly as downward-invading lesions, which were confirmed histologically. […] There were 11 mice in each group.
(§3) SKH1 hairless mice were purchased from Charles River Laboratories (Wilmington, Mass.). PKCε transgenic mice were generated as described previously (Reddig et al., 2000). The UVR source was Kodacel-filtered FS-40 sunlamps (approximately 60% UV-B and 40% UV-A). Mice were exposed to UVR from a bank of six Kodacel-filtered sunlamps. UVR dose was routinely measured using UVX-radiometer.
(§4) 4. […] Initial tumor induction experiment was performed with SKH-1 hairless mice.

For another data set, the system named is Hsp90. The following applies: cited from earlier work.
Data set [6] has as its system PKCε, Stat3, pStat3Tyr705, pStat3Ser727, Akt, pAktser473. Briefly: Epidermal protein expression levels after UVR (Western blot). Type of data set: in vivo, PKCε-overexpressing transgenic mice.
Description: PKCε-overexpressing transgenic mice (line 224) were exposed once to UVR (4 kJ/m2). […] Mice were sacrificed 24 hours post-UVR exposure. There were two mice per treatment point. Dorsal skin comprised excised, epidermal cell lysates prepared as described before (Aziz et al., 2007). […] PKCε-overexpressing transgenic mice (line 224) were exposed once to UVR (2 kJ/m2). […] Mice were sacrificed at 24 hours post-UVR exposure. There were three mice per treatment point. Dorsal skin comprised excised, epidermal cell lysates prepared as described before (Aziz et al., 2007). Pooled epidermal cell lysate was analyzed for PKCε expression level by western blot analysis (B). (C) Shown is the quantitation of the western blot (B).
Mouse skin was excised and scraped to remove subcutaneous fat. The epidermis was scraped off on an ice-cold glass plate, homogenized in lysis buffer [50 mmol/L HEPES, 150 mmol/L NaCl, 10% glycerol, 1% Triton X-100, 1.5 mmol/L MgCl2, 10 μg/m aprotinin, 10 μg/m leupeptin, 1 mmol/L phenylmethylsulfonyl fluoride (PMSF), 200 μmol/L Na3VO4, 200 μmol/L NaF, and 1 mmol/L EGTA (final pH 7.5)]. The homogenate was centrifuged at 14,000 g for 30 min at 4° C. […] The Western blots were quantitated by densitometric analysis using Totallab® Nonlinear Dynamic Image analysis software (Nonlinear USA, Inc., Durham, N.C.). […]
A short description of data set [7]: HPLC analysis of 17AAG in serum and mouse epidermis after topical application. It is filed as in vivo, mice (SKH-1 hairless, FVB). The method, then: SKH hairless mice (6-7 weeks old) were exposed to UVR (1.8 kJ/m^2) three times weekly (Monday, Wednesday, and Friday). The mice in the vehicle group (n=3) received topical treatment of 200 μl vehicle (DMSO:acetone: 1:40 v/v) before and after UVR exposures. […] All mice were treated for 25 weeks and sacrificed at 1, 3, 6 and 24 hours following the last UVR exposure. (A) Blood samples were collected to analyze serum 17AAG by HPLC. […] Mice were sacrificed at 6 and 24 hours post-17AAG treatment. (B) Blood samples were collected for serum 17AAG analysis. (C) 17AAG level was also analyzed in the epidermal protein lysate. To prepare epidermal lysate, epidermis was scraped and homogenized in the lysis buffer. […] Each value is an average of duplicate samples. ND: Not detectable. Inset: Chemical structure of 17AAG.
Dorsal areas of the mice (6-7 week old) were shaved and depilated one day before the treatment. […] Blood samples were collected to detect 17AAG in serum. To prepare epidermal lysate, epidermis was removed and homogenized with the lysis buffer. 17-AAG levels in the serum and mouse epidermis were analyzed by HPLC (Shin, et al., 2012).
1. Topically applied 17AAG is distributed both in epidermis and serum.

The conditions of data set [8]: cited from earlier work; for bioavailability: literature.
The subject of a further data set is PKCε, Hsp90β, Hsp70. Briefly: Expression levels in uninvolved skin at end of SCC experiment. Type of data set: in vivo, SKH-1 hairless mice. Particulars: SKH hairless mice. The method, then: as §1, §4
In a further data set the target is Hsp90β-PKCε interaction (Mus musculus, UniProt P11499). Particulars: 500 nmol topical before and after one UVR exposure, 24 hours post-UVR.
Sequence of Hsp90β-PKCε interaction (P11499 2-724 limits assumed): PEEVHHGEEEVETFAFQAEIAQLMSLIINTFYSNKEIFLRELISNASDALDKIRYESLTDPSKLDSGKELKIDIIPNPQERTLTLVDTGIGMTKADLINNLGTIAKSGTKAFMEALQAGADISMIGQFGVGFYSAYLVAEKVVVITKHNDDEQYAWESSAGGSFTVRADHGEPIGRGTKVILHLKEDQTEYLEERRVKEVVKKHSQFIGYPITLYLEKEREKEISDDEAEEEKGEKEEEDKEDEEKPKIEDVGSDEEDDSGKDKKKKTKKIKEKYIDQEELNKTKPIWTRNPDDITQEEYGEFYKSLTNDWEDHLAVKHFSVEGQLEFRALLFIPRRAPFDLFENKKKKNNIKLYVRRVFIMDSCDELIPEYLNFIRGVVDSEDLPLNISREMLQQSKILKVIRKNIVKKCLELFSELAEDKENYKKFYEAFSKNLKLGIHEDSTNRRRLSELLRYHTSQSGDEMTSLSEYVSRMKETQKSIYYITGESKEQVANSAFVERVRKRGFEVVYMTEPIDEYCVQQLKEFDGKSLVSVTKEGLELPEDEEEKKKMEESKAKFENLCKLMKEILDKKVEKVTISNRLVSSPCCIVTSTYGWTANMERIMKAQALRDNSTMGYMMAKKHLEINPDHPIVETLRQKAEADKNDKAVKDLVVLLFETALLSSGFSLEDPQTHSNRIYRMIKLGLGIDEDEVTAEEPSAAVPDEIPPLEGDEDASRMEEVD
Data set [9] has as its system UVR-induced SCC. Briefly: UVR-induced development of SCC in PKCε overexpressing transgenic FVB/N mice and wild-type littermates. Type of data set: in vivo. Here is the method:
as §2, §3

For data set [10] the following is noted: cited from earlier work.
The subject of data set [11] is UVR-induced hyperplasia. Briefly: 17AAG effect on UVR-induced hyperplasia / epidermal thickness. Type of data set: in vivo. The following applies: SKH1 mice, 500 nmol topical after each UVR exposure, 24 hr and 48 hr after fourth UVR, p<0.01.
Description: Groups of SKH1 mice were exposed to UVR (2 kJ/m2) three times (Monday, Wednesday, Friday, and Monday) weekly for 6 and 12 weeks. […] Mice were sacrificed at 24 hours after the last UVR treatment. […] For histochemistry, skin specimens were fixed in 10% neutral buffered formalin for 24 hours and embedded in paraffin.
In this experiment, groups of SKH1 hairless mice were exposed either four times to UVR (4 kJ/m^2, Monday, Wednesday, Friday, and Monday) or for 6 and 12 weeks (2 kJ/m^2, thrice weekly, Monday, Wednesday, Friday). […] The mice were sacrificed at 24 hr and 48 hr after the fourth UVR exposure. The, dorsal skin was removed and fixed in 10% formalin for the analyses of epidermal hyperplasia.
[12] abbreviates: both mice, 24 hr and 48 hr post-UVR.
Where [13] appears, read: 500 nmol topical after each UVR, 6 and 12 weeks.
The mark [14] stands for this setting: SKH-1 hairless mice, 17AAG applied post each UVR exposure only.
Setting [15] is: FVB mice, single topical application, 6 hr after treatment.

Read-outs that look alike come from different tables or passages of the source. Bounds are passed on as bounds.

Description for Hsp90β-PKCε interaction: PKCε-overexpressing transgenic mice (line 224) were exposed once to UVR (4 kJ/m2). […] Mice were sacrificed 24 hours post-UVR exposure. There were two mice per treatment point. Dorsal skin comprised excised, epidermal cell lysates prepared as described before (Aziz et al., 2007). Pooled epidermal cell lysate was analyzed for PKCε-Hsp90β interaction by immunoprecipitation/Western blot analyses (A).
Epidermal lysates were prepared as for Western blot analysis. 100 μg of epidermal lysate was incubated with 10 μg of the indicated antibody. The total volume of the lysate/antibody mixture was adjusted to 1,000 μL with lysis buffer to allow for appropriate mixing and rotated at 4° C. overnight. Lysate/antibody mixture was then mixed with 50 μL of protein agarose A/G (sc-2003 Santa Cruz Biotechnology, Santa Cruz, Calif.) for 6 h. Lysate/antibody/protein A/G agarose mixture was then centrifuged at 8,000 g for 10 min to sediment the protein A/G agarose. Pellet was washed with 0.1% tween in PBS and then sedimented at 8,000 g for 10 min three times to wash any non-specific binding from the pellet. After three washes the immunoprecipite was then boiled for 5 min in 20 μL Protein Loading Buffer Blue (Cat # EC-886, National Diagnostics, Atlanta, Ga.). Immunoprecipitates were then treated as in Western Blot analysis above.

Regarding `CO[C@H]1/C=C\C=C(/C)C(=O)NC2=CC(=O)C(NCCN(C)C)=C(C[C@@H](C)C[C@H](OC)[C@H](O)[C@@H](C)/C=C(\C)[C@@H]1OC(N)=O)C2=O.Cl` [17DMAG], in the data set with human Hsp90, the “potency against human Hsp90 relative to 17-AAG” value was about 2 times. Moreover, the oral bioavailability result in data set [1] was “excellent”.

For `CCNC(=O)c1noc(-c2cc(C(C)C)c(O)cc2O)c1-c1ccc(CN2CCOCC2)cc1` [NVPAU922], in the data set on UVR-induced hyperplasia [2] (setting [12]), the “effect on UVR-induced hyperplasia (Table 3)” value (from here on “effect … (Table 3)”) is recorded as “slightly negative effect”.

With `CCNC(=O)c1cc2c(-c3cc(OCCN4CCCC4)c(Cl)cc3Cl)nc(N)nc2[nH]1` [NPVBEP800], in the data set on UVR-induced hyperplasia [2], the “Effect on Hyperplasia, Mice 1 or Slide 1, 24 Hr. post UVR” value was “+++”; the “Effect on Hyperplasia, Mice 1 or Slide 1, 48 Hr. post UVR” value was “+++”; the “Effect on Hyperplasia, Mice 2 or Slide 2, 24 Hr. post UVR” value is recorded as “+++”; the “Effect on Hyperplasia, Mice 2 or Slide 2, 48 Hr. post UVR” value is “+++”. The “effect … (Table 3)” value in the data set on UVR-induced hyperplasia [2] (setting [12]) is “positive effect”.

For `CC1(C)CC(=O)c2c(C(F)(F)F)nn(-c3ccc(C(N)=O)c(N[C@H]4CC[C@H](O)CC4)c3)c2C1` [SNX-2112], the “Effect on Hyperplasia, Mice 2 or Slide 2, 24 Hr. post UVR” value with UVR-induced hyperplasia [2] is listed as “+++”. Also, in the data set on UVR-induced hyperplasia [2], the “Effect on Hyperplasia, Mice 2 or Slide 2, 48 Hr. post UVR” value is listed as “+++”. The “effect … (Table 3)” value in the data set with UVR-induced hyperplasia [2] (mouse 1, 24 hr and 48 hr post-UVR) is reported as “no effect”; in the data set with UVR-induced hyperplasia [2] (mouse 2, 24 hr and 48 hr post-UVR), “positive effect”.

Turning to `COC1=C2C[C@@H](C)C[C@H](OC)[C@H](O)[C@@H](C)/C=C(\C)[C@H](OC(N)=O)[C@@H](OC)/C=C\C=C(/C)C(=O)NC(=CC1=O)C2=O` [Geldanamycin], the liver toxicity entry in [3] is on record as “liver toxicity”.

Take `C=CCNC1=C2C[C@@H](C)C[C@H](OC)[C@H](O)[C@@H](C)/C=C(\C)[C@H](OC(N)=O)[C@@H](OC)/C=C\C=C(/C)C(=O)NC(=CC1=O)C2=O` [17AAG, 17-allylamino-demethoxygeldanamycin]: in data set [4] (setting [13]), the “expression level of MMP-2, MMP-9, collagen IV” value is “decrease” and the “expression of Hsp70” value is given as “increase”. The “UVR-induced proliferative marker PCNA” value in data set [4] (topical) is “inhibited”. In the data set with UVR-induced SCC [5] (SKH hairless mice, 500 nmol topical before and after each UVR exposure), the SCC incidence entry is “significantly (p=0.038) inhibited”. Besides, in the data set on UVR-induced SCC [5] (SKH hairless mice, 500 nmol topical before and after each UVR exposure (1.8 kJ/m2, three times weekly)), the “change in SCC latency” value is recorded as 17 weeks. Also, in the data set on UVR-induced SCC [5] (setting [14]), the “increase in SCC latency” value is listed as 20 weeks and the “inhibition of SCC incidence” value was over 50%. Further, in the data set with UVR-induced SCC [5] (end of SCC experiment, SKH hairless mice (FIG. 5C)), the “UVR-induced hyperplasia in uninvolved dorsal skin” value was “inhibition”. In the data set with Hsp90, the “higher affinity for Hsp90 derived from tumor cells compared to Hsp90 from normal cells” value is 100 fold. For the same molecule, the PKCε expression level result in data set [6] (500 nmol topical before and after one UVR exposure, 24 hours post-UVR (FIG. 3A input)) is “did not appreciably affect”. The “Stat3, pStat3Ser727, pStat3Tyr705 and pAktser473 expression levels” value in data set [6] (topical before and after one UVR exposure, 24 hours post-UVR) is given as “inhibited”. Besides, in data set [7] (500 nmol in DMSO:acetone 1:40 on skin, inferred from decline at 24 hours), the “half-life of topically applied 17AAG” value was “short”. Besides, in data set [7] (setting [15]), the “epidermal 17AAG level” value is given as “detectable” and the “serum 17AAG level” value is “detectable”. Besides, the “serum and epidermal 17AAG levels” value in [7] (SKH-1 and FVB mice, 24 hours post-17AAG treatment) is recorded as “lowest”. Also, the “time of maximum serum 17AAG level post topical application” value in data set [7] (SKH-1 hairless mice, topical 500 nmol with three weekly UVR exposures for 25 weeks) was found to be 1 h. In the data set with UVR-induced hyperplasia [2], the “Effect on Hyperplasia, Mice 1 or Slide 1, 24 Hr. post UVR” value was “+++”; the “Effect on Hyperplasia, Mice 1 or Slide 1, 48 Hr. post UVR” value was “+++”; the “Effect on Hyperplasia, Mice 2 or Slide 2, 24 Hr. post UVR” value is on record as “+++”; the “Effect on Hyperplasia, Mice 2 or Slide 2, 48 Hr. post UVR” value is listed as “+++”. Also, the “effect … (Table 3)” value in the data set with UVR-induced hyperplasia [2] (setting [12]) is on record as “positive effect”. Besides, the Half-life in [8] (administered intravenous or orally, literature reports) is 3 to 4 h. For the same molecule, the bioavailability entry in [8] (given intraperitoneally) is listed as “excellent”. In addition, the bioavailability result in data set [8] (given orally) is “modest”. For the same molecule, in the data set with PKCε, Hsp90β, Hsp70, the Hsp70 level entry is given as “increase”; the “Hsp90β and PKCε expression levels” value is “inhibition”. Also, the “UVR-induced PKCε-Hsp90β interaction” value at Hsp90β-PKCε interaction is listed as “suppressed”. In addition, the “UVR-induced development of SCC” value with UVR-induced SCC [9] (PKCε overexpressing transgenic FVB/N mice, topical 500 nmol before and after each UVR, p=0.036) was “significantly inhibited”. For the same molecule, in the data set on UVR-induced SCC [9] (wild-type and PKCε overexpressing transgenic FVB/N mice, topical, p<0.01), the “UVR-induced development of SCC” value was “significantly (p<0.01) inhibited”. In addition, the “UVR-induced development of SCC” value in the data set with UVR-induced SCC [9] (wild-type littermates (FVB/N), topical 500 nmol before and after each UVR, p=0.018) is recorded as “significantly inhibited”. For the same molecule, the “solubility in water or organic solvent, such as DMSO and ethanol, compared with Geldanamycin” value in [10] is on record as “higher”. For the same molecule, in the data set on UVR-induced hyperplasia [11], the “UVR-induced hyperplasia (epidermal thickness)” value was “inhibited”.

The values above are taken from patent US20150031697A1, “METHOD FOR PREVENTING ULTRAVIOLET RADIATION-INDUCED CUTANEOUS DAMAGE AND DEVELOPMENT OF SQUAMOUS CELL CARCINOMAS” (WISCONSIN ALUMNI RESEARCH FOUNDATION, priority 2013, published 2015).
